Measurements as given in ChEMBL document CHEMBL1201862, “PubChem BioAssay data set” (2004).
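In this assay, cells in 96-well plates receive the compound at five concentrations for 48 hours. Endpoints are linearly interpolated between the surrounding concentrations. Here, GI50 denotes the concentration required for 50% inhibition of growth.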 Activity calls are given as the source filed them. Cut-off read from the data, not from the text of the source: active = GI50 up to about 1.1 µM and inactive = higher.

Columns and labels:
Test in all cases: NCI anticancer screen, dose series, 48 h
786-0 = test system: 786-0
A498 = test system: A498
A549 = test system: A549
ACHN = test system: ACHN
CAKI-1 = test system: CAKI-1
CCRF-CEM = test system: CCRF-CEM
COLO 205 = test system: COLO 205
DLD-1 = test system: DLD-1
DMS-273 = test system: DMS-273
EKVX = test system: EKVX
HCC 2998 = test system: HCC 2998
HCT-116 = test system: HCT-116
HCT-15 = test system: HCT-15
HL-60 = test system: HL-60
HOP-62 = test system: HOP-62
HT-29 = test system: HT-29
IGROV-1 = test system: IGROV-1
K562 = test system: K562
KM-20L2 = test system: KM-20L2
KM12 = test system: KM12
LOX IMVI = test system: LOX IMVI
LXFL 529 = test system: LXFL 529
M14 = test system: M14
M19-MEL = test system: M19-MEL
MOLT-4 = test system: MOLT-4
Malme-3M = test system: Malme-3M
NCI-H226 = test system: NCI-H226
NCI-H23 = test system: NCI-H23
NCI-H460 = test system: NCI-H460
NCI-H522 = test system: NCI-H522
OVCAR-3 = test system: OVCAR-3
OVCAR-4 = test system: OVCAR-4
OVCAR-5 = test system: OVCAR-5
OVCAR-8 = test system: OVCAR-8
RPMI-8226 = test system: RPMI-8226
RXF 631 = test system: RXF 631
SF-268 = test system: SF-268
SF-295 = test system: SF-295
SF-539 = test system: SF-539
SK-MEL-2 = test system: SK-MEL-2
SK-MEL-5 = test system: SK-MEL-5
SK-OV-3 = test system: SK-OV-3
SN12C = test system: SN12C
SNB-19 = test system: SNB-19
SNB-78 = test system: SNB-78
SR = test system: SR
SW-620 = test system: SW-620
TK-10 = test system: TK-10
U-251 = test system: U-251
UACC-257 = test system: UACC-257
UACC-62 = test system: UACC-62
UO-31 = test system: UO-31
DMS-114 = test system: DMS-114
HOP-92 = test system: HOP-92
RXF 393 = test system: RXF 393
SK-MEL-28 = test system: SK-MEL-28
SNB-75 = test system: SNB-75

COC(=O)[C@]1(C)CCC[C@@]2(C)C1CCC1=C[C@@]3(C(C)C)CC[C@]12OO3 (some centres undefined)
GI50 (786-0): 20.4 µM (inactive)
GI50 (A498): 20.4 µM (inactive)
GI50 (A549): 30.6 µM (inactive)
GI50 (ACHN): 36.4 µM (inactive)
GI50 (CAKI-1): > 10 µM (inactive)
GI50 (CCRF-CEM): 17.9 µM (inactive)
GI50 (COLO 205): 22.5 µM (inactive)
GI50 (DLD-1): 24.2 µM (inactive)
GI50 (DMS-273): 25.7 µM (inactive)
GI50 (EKVX): 36.6 µM (inactive)
GI50 (HCC 2998): 31.3 µM (inactive)
GI50 (HCT-116): 25.2 µM (inactive)
GI50 (HCT-15): 31.9 µM
GI50 (HL-60): 19.1 µM (inactive)
GI50 (HOP-62): 36.9 µM (inactive)
GI50 (HT-29): 15.2 µM (inactive)
GI50 (IGROV-1): 33.2 µM (inactive)
GI50 (K562): 25.9 µM (inactive)
GI50 (KM-20L2): > 10 µM (inactive)
GI50 (KM12): 24.6 µM (inactive)
GI50 (LOX IMVI): 24.7 µM (inactive)
GI50 (LXFL 529): 23.2 µM (inactive)
GI50 (M14): 22 µM (inactive)
GI50 (M19-MEL): 25.1 µM (inactive)
GI50 (MOLT-4): 25.8 µM (inactive)
GI50 (Malme-3M): 42 µM (inactive)
GI50 (NCI-H226): 26.3 µM (inactive)
GI50 (NCI-H23): 34.1 µM (inactive)
GI50 (NCI-H460): 21.1 µM (inactive)
GI50 (NCI-H522): 17.8 µM (inactive)
GI50 (OVCAR-3): 27.8 µM (inactive)
GI50 (OVCAR-4): 42.3 µM (inactive)
GI50 (OVCAR-5): 22.4 µM (inactive)
GI50 (OVCAR-8): 35.8 µM (inactive)
GI50 (RPMI-8226): 18.2 µM (inactive)
GI50 (RXF 631): 22.6 µM (inactive)
GI50 (SF-268): 24.7 µM (inactive)
GI50 (SF-295): 25.8 µM (inactive)
GI50 (SF-539): 22.3 µM (inactive)
GI50 (SK-MEL-2): 36.5 µM (inactive)
GI50 (SK-MEL-5): 15.7 µM (inactive)
GI50 (SK-OV-3): 60 µM (inactive)
GI50 (SN12C): 31.3 µM (inactive)
GI50 (SNB-19): 58.2 µM (inactive)
GI50 (SNB-78): 54.3 µM (inactive)
GI50 (SR): 19.4 µM (inactive)
GI50 (SW-620): 36.1 µM (inactive)
GI50 (TK-10): > 100 µM (inactive)
GI50 (U-251): 41.8 µM (inactive)
GI50 (UACC-257): 26.2 µM (inactive)
GI50 (UACC-62): 25.3 µM (inactive)
GI50 (UO-31): 18.5 µM (inactive)

CC(C)c1cccc(C(C)C)c1NC(=O)/C(Cc1nc2ccc(Cl)cc2nc1O)=N\NC(=O)C[N+](C)(C)C
GI50 (786-0): > 100 µM (inactive)
GI50 (A498): > 100 µM (inactive)
GI50 (A549): > 100 µM (inactive)
GI50 (ACHN): > 100 µM (inactive)
GI50 (CAKI-1): 95.7 µM (inactive)
GI50 (CCRF-CEM): > 100 µM (inactive)
GI50 (COLO 205): > 100 µM (inactive)
GI50 (DLD-1): > 100 µM (inactive)
GI50 (DMS-114): > 100 µM (inactive)
GI50 (EKVX): 4.22 µM (inactive)
GI50 (HCC 2998): > 100 µM (inactive)
GI50 (HCT-116): > 100 µM (inactive)
GI50 (HL-60): > 100 µM (inactive)
GI50 (HOP-62): > 100 µM (inactive)
GI50 (HOP-92): 85.5 µM (inactive)
GI50 (HT-29): > 100 µM (inactive)
GI50 (IGROV-1): > 100 µM (inactive)
GI50 (K562): > 100 µM (inactive)
GI50 (KM-20L2): > 100 µM (inactive)
GI50 (KM12): > 100 µM (inactive)
GI50 (M14): > 100 µM (inactive)
GI50 (M19-MEL): > 100 µM (inactive)
GI50 (MOLT-4): > 100 µM (inactive)
GI50 (Malme-3M): > 100 µM (inactive)
GI50 (NCI-H23): > 100 µM (inactive)
GI50 (NCI-H460): > 100 µM (inactive)
GI50 (NCI-H522): > 100 µM (inactive)
GI50 (OVCAR-3): > 100 µM (inactive)
GI50 (OVCAR-4): > 100 µM (inactive)
GI50 (OVCAR-5): > 100 µM (inactive)
GI50 (OVCAR-8): > 100 µM (inactive)
GI50 (RPMI-8226): > 100 µM (inactive)
GI50 (RXF 393): > 100 µM (inactive)
GI50 (RXF 631): > 100 µM (inactive)
GI50 (SF-268): > 100 µM (inactive)
GI50 (SF-295): > 100 µM (inactive)
GI50 (SF-539): > 100 µM (inactive)
GI50 (SK-MEL-28): > 100 µM (inactive)
GI50 (SK-MEL-2): > 100 µM (inactive)
GI50 (SK-MEL-5): > 100 µM (inactive)
GI50 (SK-OV-3): > 100 µM (inactive)
GI50 (SN12C): > 100 µM (inactive)
GI50 (SNB-19): > 100 µM (inactive)
GI50 (SR): > 100 µM (inactive)
GI50 (SW-620): > 100 µM (inactive)
GI50 (TK-10): > 100 µM (inactive)
GI50 (UACC-257): > 100 µM (inactive)
GI50 (UACC-62): > 100 µM (inactive)
GI50 (UO-31): 76.7 µM (inactive)

O=C(NCCCl)SCCO
GI50 (786-0): > 100 µM (inactive)
GI50 (A498): > 100 µM (inactive)
GI50 (A549): > 100 µM (inactive)
GI50 (ACHN): > 100 µM (inactive)
GI50 (CCRF-CEM): > 100 µM (inactive)
GI50 (COLO 205): > 100 µM (inactive)
GI50 (DLD-1): > 100 µM (inactive)
GI50 (DMS-114): > 100 µM (inactive)
GI50 (DMS-273): > 100 µM (inactive)
GI50 (EKVX): > 100 µM (inactive)
GI50 (HCC 2998): > 100 µM (inactive)
GI50 (HCT-116): > 100 µM (inactive)
GI50 (HCT-15): > 100 µM
GI50 (HL-60): > 100 µM (inactive)
GI50 (HOP-62): > 100 µM (inactive)
GI50 (HT-29): > 100 µM (inactive)
GI50 (IGROV-1): > 100 µM (inactive)
GI50 (K562): > 100 µM (inactive)
GI50 (KM-20L2): > 100 µM (inactive)
GI50 (KM12): > 100 µM (inactive)
GI50 (LXFL 529): > 100 µM (inactive)
GI50 (M14): > 100 µM (inactive)
GI50 (M19-MEL): > 100 µM (inactive)
GI50 (MOLT-4): > 100 µM (inactive)
GI50 (Malme-3M): > 100 µM (inactive)
GI50 (NCI-H226): > 100 µM (inactive)
GI50 (NCI-H23): > 100 µM (inactive)
GI50 (NCI-H460): > 100 µM (inactive)
GI50 (NCI-H522): > 100 µM (inactive)
GI50 (OVCAR-3): > 100 µM (inactive)
GI50 (OVCAR-4): > 100 µM (inactive)
GI50 (OVCAR-5): > 100 µM (inactive)
GI50 (OVCAR-8): > 100 µM (inactive)
GI50 (RPMI-8226): > 100 µM (inactive)
GI50 (RXF 393): > 100 µM (inactive)
GI50 (RXF 631): > 100 µM (inactive)
GI50 (SF-268): > 100 µM (inactive)
GI50 (SF-295): > 100 µM (inactive)
GI50 (SF-539): > 100 µM (inactive)
GI50 (SK-MEL-28): > 100 µM (inactive)
GI50 (SK-MEL-2): > 100 µM (inactive)
GI50 (SK-OV-3): > 100 µM (inactive)
GI50 (SN12C): > 100 µM (inactive)
GI50 (SNB-19): > 100 µM (inactive)
GI50 (SNB-75): > 100 µM (inactive)
GI50 (SNB-78): > 100 µM (inactive)
GI50 (SR): > 100 µM (inactive)
GI50 (SW-620): > 100 µM (inactive)
GI50 (TK-10): > 100 µM (inactive)
GI50 (U-251): > 100 µM (inactive)
GI50 (UACC-257): > 100 µM (inactive)
GI50 (UACC-62): > 100 µM (inactive)
GI50 (UO-31): > 100 µM (inactive)
